Measurements published in publication PMC7489893, “A small molecule inhibitor of HER3: a proof-of-concept study” (Biochemical Journal, 2020).
Read-outs that look alike come from different tables or passages of the source.

Experiments:
[1] = molecular target: T1, HER2 kinase domain (Homo sapiens, UniProt P04626); test: biochemical; design: in vitro HER2 kinase inhibition assay at the Km for ATP (ThermoFisher); details: at Km for ATP; read-out: Activity against HER2, IC50
T1 construct: gene ERBB2; kinase domain, ThermoFisher in vitro kinase assay
From the text: Since the readout for HER3 function in cells required HER2 activity, it was critical to confirm HER2 inactivity of these compounds.

[2] = molecular target: T2, HER2 (Homo sapiens, UniProt P04626, M706A/M712L/Q711L); test: biochemical; design: differential scanning fluorimetry with SYPRO Orange, shift in HER2 kinase domain Tm (counter screen); details: counter screen
T2 construct: gene ERBB2; HER2 kinase domain (S703-G1029)
Experimental: Thermal shift assays were performed using a QuantStudio7 Flex Real-Time PCR instrument (Applied Biosystems, ThermoFischer Scientific) scanning from 15°C to 75°C in 0.5°C increments every 30 s after an initial incubation at 15°C for 1 min. Fluorescence was measured at the end of each 30 s period with an excitation wavelength of 470 nm and an emission wavelength of 620 nm. HER3 and HER2 kinase domain recombinant proteins were diluted in 50 mM Hepes pH 7.5, 150 mM NaCl, 5% glycerol and 1 mM DTT to a concentration of 1.5 μM and then incubated with the indicated concentration of compounds in a total reaction volume of 10 μl, with a final concentration of 2.5X SYPRO Orange (ThermoFisher Scientific) as fluorescence probe. […] We sought to identify compounds binding specifically to HER3. Since HER2 and HER3 are highly homologous EGFR family members, we took forward the 555 compounds identified as stabilising HER3, to be counter screened for HER2 binding. […] Compounds binding to HER2, i.e. inducing a shift in HER2 Tm over 2°C (3×SD) compared with the DMSO neutral control were disregarded (Supplementary Figure S2D). […] A differential scanning fluorimetry (DSF) assay compound screen identifies 428 HER3-preferential binders from a 107 008 compound library. (A) Overview of the screening strategy and hit rate for each step of the screening cascade. […] ApoHER3 (HER3 kinase domain with no ligand) was used as a control for all DSF analyses (mean of ApoHER3 Tm across the plates set at ΔTm = 0°C is indicated by the dash green line) and ΔTm values were calculated for each pool of compounds tested at 30 μM each (N = 1). Cut-off values of ΔTm>3°C and ΔTm < −5°C were used to designate hits (shown as dashed pink lines). The pool of compounds containing proof-of-concept compound AC3573 is circled. Gaps indicate the rare plate failures (three plates). Compounds from these plates were retested during the deconvolution screen. (C) Correlation of shift in HER3 Tm value induced by deconvoluted pool compounds tested at 30 μM between the two repeats of deconvolution screening. AC3573 and its three pool compounds are highlighted. (D) Dose-dependent analysis of thermal shifts induced by AC3573 compound tested at 1, 3, 10 and 30 μM in the HER3 potency screen. The change in HER3 Tm value (ΔTm), compared with ApoHER3 control, is reported as mean ± SD from N = 4 independent experiments. Representative thermal denaturation profiles of recombinant HER3 kinase domain, in the presence of 0.3% DMSO (Apo control), ATP/MgCl2 (ATP control) or AC3573 tested at 1, 3, 10 and 30 μM. (E) Dose-dependent analysis of thermal shifts induced by AC3573 compound tested at 1, 3, 10 and 30 μM in the HER2 counter screen. […]

[3] = molecular target: T3, HER3 (Homo sapiens, UniProt P21860); test: biochemical; design: gene ERBB3; HER3 kinase domain (residues G684-D1020); differential scanning fluorimetry with SYPRO Orange, shift in HER3 kinase domain Tm
T3 sequence (P21860 684-1020): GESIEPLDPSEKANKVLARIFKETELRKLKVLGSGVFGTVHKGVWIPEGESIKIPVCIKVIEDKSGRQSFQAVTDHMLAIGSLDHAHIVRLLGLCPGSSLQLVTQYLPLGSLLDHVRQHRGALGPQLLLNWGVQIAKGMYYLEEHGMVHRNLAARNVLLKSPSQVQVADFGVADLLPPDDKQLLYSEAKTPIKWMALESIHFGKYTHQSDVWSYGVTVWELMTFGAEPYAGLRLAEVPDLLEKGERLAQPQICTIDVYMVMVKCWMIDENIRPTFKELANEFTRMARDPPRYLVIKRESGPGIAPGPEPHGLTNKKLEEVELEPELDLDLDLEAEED
Experimental: Thermal shift assays were performed using a QuantStudio7 Flex Real-Time PCR instrument (Applied Biosystems, ThermoFischer Scientific) scanning from 15°C to 75°C in 0.5°C increments every 30 s after an initial incubation at 15°C for 1 min. Fluorescence was measured at the end of each 30 s period with an excitation wavelength of 470 nm and an emission wavelength of 620 nm. HER3 and HER2 kinase domain recombinant proteins were diluted in 50 mM Hepes pH 7.5, 150 mM NaCl, 5% glycerol and 1 mM DTT to a concentration of 1.5 μM and then incubated with the indicated concentration of compounds in a total reaction volume of 10 μl, with a final concentration of 2.5X SYPRO Orange (ThermoFisher Scientific) as fluorescence probe. […] Hit compounds stabilising HER3 were then evaluated for their relative binding affinity in a dose–response thermal shift assay at 1, 3, 10 and 30 μM (Supplementary Figure S2C). […] The proof-of-concept compound was confirmed as a HER3 binder inducing a shift in HER3 Tm of over 3°C with the dose–response indicating an estimated IC50 of 4 μM (Figure 1D and Supplementary Table S2). Near neighbours of those 109 hits were selected and 663 new compounds were screened in duplicate for their relative potency at 1, 3, 10 and 30 μM by thermal shift assay. From those, 446 compounds passed the selection criteria, i.e. induced shift in HER3 Tm > 3°C below 10 μM (data not shown). Figure 1. A differential scanning fluorimetry (DSF) assay compound screen identifies 428 HER3-preferential binders from a 107 008 compound library. (A) Overview of the screening strategy and hit rate for each step of the screening cascade. […] ApoHER3 (HER3 kinase domain with no ligand) was used as a control for all DSF analyses (mean of ApoHER3 Tm across the plates set at ΔTm = 0°C is indicated by the dash green line) and ΔTm values were calculated for each pool of compounds tested at 30 μM each (N = 1). Cut-off values of ΔTm>3°C and ΔTm < −5°C were used to designate hits (shown as dashed pink lines). The pool of compounds containing proof-of-concept compound AC3573 is circled. Gaps indicate the rare plate failures (three plates). Compounds from these plates were retested during the deconvolution screen. (C) Correlation of shift in HER3 Tm value induced by deconvoluted pool compounds tested at 30 μM between the two repeats of deconvolution screening. AC3573 and its three pool compounds are highlighted. (D) Dose-dependent analysis of thermal shifts induced by AC3573 compound tested at 1, 3, 10 and 30 μM in the HER3 potency screen. The change in HER3 Tm value (ΔTm), compared with ApoHER3 control, is reported as mean ± SD from N = 4 independent experiments. […]

[4] = molecular target: T3, HER3; test: biochemical; design: gene ERBB3; HER3 kinase domain (residues G684-D1020); differential scanning fluorimetry with SYPRO Orange, HER3 Tm shift, single-compound deconvolution screen; details: read-out: ΔTm (°C) HER3 deconvolution screen
Experimental: Thermal shift assays were performed using a QuantStudio7 Flex Real-Time PCR instrument (Applied Biosystems, ThermoFischer Scientific) scanning from 15°C to 75°C in 0.5°C increments every 30 s after an initial incubation at 15°C for 1 min. Fluorescence was measured at the end of each 30 s period with an excitation wavelength of 470 nm and an emission wavelength of 620 nm. HER3 and HER2 kinase domain recombinant proteins were diluted in 50 mM Hepes pH 7.5, 150 mM NaCl, 5% glycerol and 1 mM DTT to a concentration of 1.5 μM and then incubated with the indicated concentration of compounds in a total reaction volume of 10 μl, with a final concentration of 2.5X SYPRO Orange (ThermoFisher Scientific) as fluorescence probe. […] Having established a robust screening platform, a total of 107 008 small molecule compounds were screened as mixtures of four compounds per well (a total of 26 752 wells) at 30 μM each in a primary library screen. […] In the second step of screening, hit pools of compounds were arrayed as individual compounds and 3119 compounds (2835 hits plus 284 compounds from failed wells from the primary screen) were assessed at 30 μM, using the same thermal shift assay settings as for the primary screen (0.3% DMSO as neutral controls reflecting the single compound use, 200 μM ATP/10 mM MgCl2 as positive controls) applying again a cut-off value of ΔTm > 3°C (Figure 1C). […]

[5] = molecular target: T3, HER3; test: DSF dose-response thermal shift; HDX-MS binding site mapping; design: gene ERBB3
[6] = read-out: ΔTm (°C) HER3 potency screen

- IC50 [1]: > 10 µM
- ΔTm at 1 µM ([2]; 1 uM): -0.75 ± 0.18 °C
- ΔTm at 3 µM ([2]; 3 uM): 0.48 ± 0.52 °C
- ΔTm at 10 µM ([2]; 10 uM): 1.56 ± 0.26 °C
- ΔTm at 30 µM ([2]; 30 uM): 1.95 ± 0.25 °C
- ΔTm at 3 µM ([3]; 3 uM, potency screen): 1.27 ± 0.51 °C
- ΔTm at 30 µM ([3]; 30 uM, potency screen): 3.2 ± 0.24 °C
- ΔTm at 1 µM [3, 6]: -1.34 ± 0.48 °C
- ΔTm at 10 µM [3, 6]: 3.28 ± 0.62 °C
- ΔTm at 30 µM [4]: 3.65 ± 0.25 °C
- IC50 [5]: ~4 µM
SMILES: NS(=O)(=O)c1cccc(Nc2cc(-c3c[nH]c4ccccc34)ncn2)c1 [AC3573]
